system: human immortalized podocytes inducibly expressing APOL1 G2; assay: APOL1 G2 podocyte cell rescue assay (Example B4); assay type: cell-based; conditions: Homo sapiens, differentiated human podocytes, doxycycline-induced APOL1 G2, CellTiter-Glo; geometric mean of at least 2 runs; † = single run
How it was run: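 Differentiated hTERT-immortalized podocytes (clone D10) with doxycycline-inducible C-terminally HiBiT-tagged APOL1 G2, 6,000 cells/well, treated with doxycycline plus 8-point 3-fold compound series (0.4% DMSO) for 95 h at 37 °C. Viability by CellTiter-Glo luminescence; EC50 as geometric mean of ≥2 runs, each in duplicate.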

Row | Compound | EC50 [nM]
1 | O=C1Nc2ccc(Cl)cc2C12CCN(CCOc1cnc(N3CC(O)C3)nc1)CC2 [Compound 301, 5-chloro-1′-(2-{[2-(3-hydroxyazetidin-1-yl)pyrimidin-5-yl]oxy}ethyl)-1,2-dihydrospiro[indole-3,4′-piperidin]-2-one] | 66.9
2 | CC(C)(O)c1ncc(OCCN2CCC3(CC2)C(=O)Nc2ccc(Cl)cc23)cn1 [Compound 305, 5-chloro-1′-(2-{[2-(2-hydroxypropan-2-yl)pyrimidin-5-yl]oxy}ethyl)-1,2-dihydrospiro[indole-3,4′-piperidin]-2-one] | 15
3 | CC1(O)CN(c2nccc3cc(OCCN4CCC5(CC4)C(=O)Nc4ccc(Cl)cc45)cnc23)C1 [Compound 306, 5-chloro-1′-(2-{[8-(3-hydroxy-3-methylazetidin-1-yl)-1,7-naphthyridin-3-yl]oxy}ethyl)-1,2-dihydrospiro[indole-3,4′-piperidin]-2-one] | 1.94
4 | O=C1Nc2ccc(Cl)cc2C12CCN(CCOc1cnc3c(N4CC(O)C4)nccc3c1)CC2 [Compound 314, 5-chloro-1′-(2-{[8-(3-hydroxyazetidin-1-yl)-1,7-naphthyridin-3-yl]oxy}ethyl)-1,2-dihydrospiro[indole-3,4′-piperidin]-2-one] | 4.57

— patent US12344610B2, “APOL1 inhibitors and methods of use” (Maze Therapeutics, Inc., priority 2022, dated 2025)
